From paper PMC3161979, “MrkH, a Novel c-di-GMP-Dependent Transcriptional Activator, Controls Klebsiella pneumoniae Biofilm Formation by Regulating Type 3 Fimbriae Expression” (PLoS Pathogens, 2011)

Target: T1, MrkH (MrkH-8×His) (Klebsiella pneumoniae, UniProt G3FT00)
T1 construct: full length, 234 aa, C-terminal 8×His tag, expressed from pET11a in E. coli BL21(DE3), about 28 kDa
Assay: EMSA with […]-labelled mrkA promoter fragment
Format: biochemical
Conditions: 200 µM c-di-GMP; pH 7.4; 30°C; 0-500 nM protein; allosteric activator of DNA binding; indirect read-out, no direct c-di-GMP binding measured

T1 sequence (G3FT00 entry or part of it): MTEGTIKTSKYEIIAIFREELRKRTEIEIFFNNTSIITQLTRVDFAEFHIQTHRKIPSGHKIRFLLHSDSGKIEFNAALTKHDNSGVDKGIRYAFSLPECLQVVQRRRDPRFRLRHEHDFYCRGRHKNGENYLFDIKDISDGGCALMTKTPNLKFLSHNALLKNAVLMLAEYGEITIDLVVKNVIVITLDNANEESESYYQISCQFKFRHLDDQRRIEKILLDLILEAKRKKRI

`Nc1nc2c(ncn2[C@@H]2O[C@@H]3COP(=O)(O)O[C@H]4[C@@H](O)[C@H](n5cnc6c(=O)[nH]c(N)nc65)O[C@@H]4COP(=O)(O)O[C@H]3[C@H]2O)c(=O)[nH]1` [c-di-GMP] was tested, and the “EMSA with 32P-labelled mrkA promoter fragment” value was “In the presence of c-di-GMP, the majority of the DNA was shifted”.
